{"source": "EPA's ToxValDB 9.5 (doi:10.2903/j.efsa.2011.2159)", "key": {"[1]": {"test_system": "Daphnia magna", "conditions": "chronic/long-term; duration: 21 days; reproduction"}, "[2]": {"test_system": "Canidae", "conditions": "chronic; duration: 1 years; oral; Dog Other; clinical signs"}, "[3]": {"test_system": "Apis mellifera", "conditions": "acute; duration: 48 hours; oral; unspecified; mortality"}, "[4]": {"test_system": "Bibionidae", "conditions": "chronic/long-term; duration: 28 days"}, "[5]": {"test_system": "Colinus virginianus", "conditions": "mortality; for LD50: acute, oral"}, "[6]": {"test_system": "Mus musculus", "conditions": "acute; oral; mortality"}, "[7]": {"test_system": "Anas platyrhynchos", "conditions": "mortality"}, "[8]": {"test_system": "Oncorhynchus mykiss"}, "[9]": {"test_system": "Aphidius rhopalosiphi", "conditions": "not reported; mortality"}, "[10]": {"test_system": "Tagia sp."}, "[11]": {"test_system": "Rattus norvegicus"}}, "data": [{"smiles": "Cc1c(COC(=O)[C@@H]2[C@H](/C=C(\\Cl)C(F)(F)F)C2(C)C)cccc1-c1ccccc1", "note": "[Bifenthrin]", "values": [{"measurement": "NOEC", "setting": "[1]", "value": "9.5e-07", "unit": "mg/L"}, {"measurement": "NOAEL", "setting": "[2]", "value": 1.5, "unit": "mg/kg-day"}, {"measurement": "LD50", "setting": "[3]", "value": 0.1, "unit": "µg/piece"}, {"measurement": "NOEC", "setting": "[4]", "value": 0.00032, "unit": "mg/L"}, {"measurement": "LD50", "setting": "[5]; diet", "value": 569, "unit": "mg/kg-day"}, {"measurement": "LD50", "setting": "[5]", "value": 1800, "unit": "mg/kg"}, {"measurement": "NOEC", "setting": "[5]; reproduction developmental", "value": 75, "unit": "mg/kg-day"}, {"measurement": "LD50", "setting": "[6]", "value": 42.5, "unit": "mg/kg"}, {"measurement": "LD50", "setting": "[7]; acute, oral, unspecified", "value": "> 2150", "unit": "mg/kg"}, {"measurement": "NOEC", "setting": "[7]; reproductive", "value": 75, "unit": "mg/kg"}, {"measurement": "NOEC", "setting": "[7]; short-term, oral, feed", "value": 312, "unit": "mg/kg"}, {"measurement": "LC50", "setting": "[8]; acute, duration: 96 hours, mortality", "value": 0.1, "unit": "ng/mL"}, {"measurement": "NOEC", "setting": "[8]; chronic/long-term, duration: 30 days, other", "value": "1.2e-05", "unit": "mg/L"}, {"measurement": "LEL", "setting": "[9]", "value": 60, "unit": "g/ha"}, {"measurement": "LC50", "setting": "[10]; acute, duration: 14 days, mortality", "value": "> 16", "unit": "mg/kg"}, {"measurement": "NOEC", "setting": "[10]; chronic/long-term, duration: 56 days, reproduction", "value": 2.16, "unit": "mg/kg"}, {"measurement": "NOAEL", "setting": "[11]; developmental, development", "value": "> 2", "unit": "mg/kg-day"}, {"measurement": "NOAEL", "setting": "[11]; reproduction developmental, reproduction", "value": 3, "unit": "mg/kg-day"}, {"measurement": "NOAEL", "setting": "[11]; subchronic, duration: 90 days, oral, neurology", "value": 2.9, "unit": "mg/kg-day"}]}]}
